Experiments:
Experiment in all cases: microbe, parasite or virus in culture
Assay type in all cases: cell-based
[1] = test system: Fusarium culmorum; settings: 168 h
[2] = test system: Septoria tritici; settings: Zymoseptoria tritici, 168 h
[3] = test system: Phytophthora infestans; settings: 168 h, read-out: Fungal growth at 31 ppm (%) PHYTIN

SMILES | activity at 31 ppm [1] | activity at 31 ppm [2] | activity at 31 ppm [3]
CNC(=O)/C(=N/OC)c1cccc(C)c1CO/N=C(\C)c1cc(C)ccn1 [Example 26] | 12% | 7% | 0%
CNC(=O)/C(=N/OC)c1cccc(C)c1CO/N=C(\C)c1cccc(OC)n1 [Example 3] | 6% | 4% | 0%
CNC(=O)/C(=N/OC)c1cccc(C)c1CO/N=C(\C)c1cnc(C)c(F)c1 [Example 101] | 15% |  | 0%
CNC(=O)/C(=N/OC)c1cccc(C)c1CO/N=C(\C)c1cc2ccccc2cn1 [Example 67] | 9% | 5% | 0%
CNC(=O)/C(=N/OC)c1cccc(C)c1CO/N=C(\C)c1cncc(/C(C)=N/OC)n1 [Example 83] | 21% |  | 
CO/N=C(/C(=O)OC)c1cccc(C)c1CO/N=C(\C)c1cncn1C [Example 102] |  |  | 0%
CNC(=O)/C(=N/OC)c1cccc(C(F)(F)F)c1CO/N=C(\C)c1cc(-c2ccc(Cl)cc2)on1 [Example 17] | 14% | 1% | 0%
CO/N=C(/C(=O)OC)c1cccc(C)c1CO/N=C(\C)c1cc(-c2cccc(C(F)(F)F)c2)on1 [Example 19] | 20% |  | 
CO/N=C(/C(=O)OC)c1cccc(C)c1CO/N=C(\C)c1cnc(C)c(F)c1 [Example 100] | 12% | 19% | 0%
CO/N=C(/C(=O)OC)c1cccc(C)c1CO/N=C(\C)c1nccc2ccccc12 [Example 44] |  | 2% | 15%
CO/N=C(/C(=O)OC)c1cccc(C)c1CO/N=C(\C)c1ccc(C#CC2CC2)nc1 [Example 68] | 13% |  | 3%
CO/N=C(/C(=O)OC)c1cccc(C)c1CO/N=C(\C)c1nccc(C(F)(F)F)n1 [Example 71] |  | 0% | 0%
CNC(=O)/C(=N/OC)c1cccc(C)c1CO/N=C(\C)c1cc(C(F)(F)F)nc(C)n1 [Example 58] | 17% | 21% | 11%
CO/N=C(/C(=O)OC)c1cccc(C)c1CO/N=C(\C)c1ccc(Cl)nn1 [Example 91] | 16% |  | 0%
CNC(=O)/C(=N/OC)c1cccc(C)c1CO/N=C(\C)c1cc(OC)ccn1 [Example 56] | 11% |  | 0%
CO/N=C(/C(=O)OC)c1cccc(C)c1CO/N=C(\C)c1ncsc1C(F)(F)F [Example 40] |  | 0% | 8%
CO/N=C(/C(=O)OC)c1cccc(C)c1CO/N=C(\C)c1cc(-c2ccc(Cl)cc2)sn1 [Example 7] | 11% |  | 
CNC(=O)/C(=N/OC)c1cccc(C)c1CO/N=C(\C)c1cc(-c2ccc(Cl)cc2)on1 [Example 20] | 17% |  | 3%
CO/N=C(/C(=O)OC)c1cccc(C)c1CO/N=C(\C)c1cc(-c2cccc(C(F)(F)F)c2)sn1 [Example 35] | 20% |  | 
CNC(=O)/C(=N/OC)c1cccc(C)c1CO/N=C(\C)c1nccc2ccccc12 [Example 45] | 4% | 6% | 0%
CO/N=C(/C(=O)OC)c1cccc(C)c1CO/N=C(\C)c1cccc(C(F)(F)F)n1 [Example 1] |  | 10% | 
CNC(=O)/C(=N/OC)c1cccc(C)c1CO/N=C(\C)c1cc(-c2ccc(Cl)cc2)sn1 [Example 8] |  |  | 6%
CNC(=O)/C(=N/OC)c1cccc(C)c1CO/N=C(\C)c1cc(-c2ccccc2)sn1 [Example 38] | 16% |  | 6%
CO/N=C(/C(=O)OC)c1cccc(C)c1CO/N=C(\C)c1cn(C)nc1C(F)(F)F [Example 51] | 8% | 3% | 
CNC(=O)/C(=N/OC)c1cccc(C)c1CO/N=C(\C)c1nccc(C(F)(F)F)n1 [Example 73] | 13% | 21% | 1%
CO/N=C(/C(=O)OC)c1cccc(C(F)(F)F)c1CO/N=C(\C)c1cc(-c2ccc(Cl)cc2)on1 [Example 16] | 19% |  | 
